Counter-ions that a name gives are not always drawn.
How the values were obtained:
IE2 = test: Quantitative Western blot of IE2; assay type: cell-based, human CMV (hCMV); conditions: with increasing Hoechst 33258 exposure
Protocol: Cell monolayers were rinsed in PBS buffer, and cells from each well were scraped into 50 μl A of RIPA buffer and stored at −80° C. For analysis, samples were thawed and quantitated for total protein content using a modified Lowry assay (BioRad DC protein assay kit). Equivalent amounts of total protein (10 μg) were added to appropriate volumes of 4× sample loading buffer (50 mM Tris-HCl pH 6.8, 2% sodium docecyl sulfate (SDS), 10% glycerol, 1% beta-mercaptoethanol, 12.5 mM EDTA, and 0.02% bromophenol blue) and heated at 95° C. for 5 minutes. Protein samples were loaded and separated on precast SDS polyacrylamide gel electrophoresis (PAGE) 10% or 7.5% bisacrylamide gels (BioRad). Protein transfer and blot preparation were handled as previously described (Bolovan-Fritts et al., 2004). For detection of protein bands, primary mouse monoclonal antibody against a shared epitope present in IE1 and IE2 at 1:100 (MAB810, Millipore). Beta tubulin was used as a normalization marker, and detected by a primary rabbit anti-beta tubulin antibody (926-42211, LiCor) used at a dilution of 1:2000. The secondary antibody for IE2 detection used was a donkey anti-mouse conjugated to IR dye 800CW (926-32212, LiCor) at a dilution of 1:20,000. […] Blots were scanned using a LiCor Odyssey Infrared Imaging system and software analysis for quantitation.

HCMV = HCMV infection across a range of virus concentrations, 10 days post-infection; assay type: cell-based, human CMV (hCMV); conditions: wide range of virus concentrations, FIG. 23
Description: All time points were taken at 10 days post-infection as described in Teng et al. Cell 2012 (cited herein).

[1] = test system: DNA CRS target with purified IE2 protein; test: Gel shift assay (EMSA) of IE2-CRS; assay type: binding; conditions: various amounts of BB33258; FIG. 20
Protocol: IE2-MBP expressed in BL21 cells was purified using amylose column, and EMSA was performed for IE2-crs interaction as described in Macias, M. P., Stinski, M. F., 1993. PNAS. 90, 707-711.

[2] = test system: IE2 negative feedback (LM2ig "low" cells); test: LM2ig "low" drug screen (4 day induction, high throughput flow cytometry); assay type: cell-based, human CMV (hCMV); conditions: induction period of 4 days, FIG. 9
Protocol: LM2ig “low” cells (˜0% GFP positive before induction) were treated with agents in duplicate for an induction period of 4 days. During this induction period, the cell culture medium was not changed; images were taken every day for 4 days. On the final day, high throughput flow cytometry was carried out on FACS IntelliCyt. Agents tested were: Hoechst 33258, Hoechst 33342, VPA, TSA, TNF-α, hexamethylene bisacetamide (HMBA), phorbol myristate acetate (PMA), neotroposin, distamycin, DAPI, gemcitabine, prednisolone, suberanilohydroxamic acid (SAHA), (2E)-N-hydroxy-3-[4-({[2-(2-methyl-1H-indol-3-yl)ethyl]amino}methyl)phenyl]acrylamide (panobinostat), thapsigargin, JQ1, prostratin, dimizane acetate, pentamidine, or bendamustine.

Rhesus CMV (RhCMV) = test: Rhesus CMV viral replication kinetics on rhesus fibroblast cells; assay type: cell-based, rhesus monkey
Protocol: Murine CMV (MCMV) replication kinetics were performed in BALB/c mice using the Smith strain of MCMV as previously described (Orr et al., 2010) and on NIH 3T3 cells using same methods as for HCMV. Rhesus CMV (RhCMV) viral replication kinetics were performed on rhesus fibroblast cells as described in (Lilja et al., 2008).

[3] = test system: clinically derived CMV isolate TB40E; test: HCMV TB40E virus replication and spread on epithelial cell monolayers; assay type: cell-based, human CMV (hCMV); conditions: FIG. 22
Description: (Cells show more CPE with drug treatment and appear more distorted and larger.) Infection at MOI of 1 on confluent epithelial cell monolayers. Images on day 5, post infection.

CN1CCN(c2ccc3[nH]c(-c4ccc5[nH]c(-c6ccc(O)cc6)nc5c4)nc3c2)CC1 [Hoechst 33258, 2′-(4-hydroxyphenyl)-5-(4-methyl-1-piperazinyl)-2,5′-bi-1H-benzimidazole trihydrochloride hydrate]
IE2 levels (quantitative Western blot) (IE2): increase
HCMV infection (HCMV): inhibits HCMV infection across a wide range of virus concentrations
binding to the CRS sequence (EMSA) [1]: binding
breaking of the IE2 negative feedback (geometric mean of GFP) [2]: specifically break the IE2 negative feedback
cytopathic effect (CPE) and plaque formation (Rhesus CMV (RhCMV); DIC imaging, rhCMV-infected cells): reduced cytopathic effect (CPE) and plaque formation
rhCMV replication (Rhesus CMV (RhCMV); FIG. 11): inhibited rhCMV replication to an extent similar to Hoechst 33258 inhibition of hCMV replication
inhibitory effect on rhCMV replication at various MOI and after multiple rounds of replication (Rhesus CMV (RhCMV); FIG. 12): remains both at high MOI and also after multiple rounds of replication
virus fitness (TB40E replication levels) ([3]; MOI of 1, confluent epithelial cell monolayers): virus fitness loss
cell to cell spread (IE2-YFP positive cells) ([3]; MOI of 1, images on day 5 post infection): inhibits cell to cell spread

Reference: patent US10478431B2, “Methods for treating a cytomegalovirus infection” (priority 2014, dated 2019)
